We go through eleven compounds from patent WO2005063245A1, “Composition for lowering blood pressure” (priority 2003, dated 2005).

Where two headings read alike, the source gives them in different places.

Series [1] is described as follows: Test example 6: test of blood pressure lowering effect using SHR rats, samples (16)-(30) (Table 9). In kind it is in vivo, rat. The note with it: oral, mean ± SE, dose mg/kg: 17: 500, 18: 1.5, 19: 3.0, 20, 21, 24, 26, 27, 28, 30: 50, 22, 23: 20, 25, 29: 100.
Series [2] is described as follows: Blood pressure lowering effect of samples (31)-(38) in SHR rats, same manner as Test example 6 (Table 11). In kind it is in vivo, rat. The note with it: oral.
Series [3] can be described thus: Oral administration experiment with SHR rats (summary statement). It is filed as in vivo, rat.
For series [4] the following is noted: Non-Patent Document 4; cited from earlier work.
For series [5] the following is noted: rats, intraperitoneal; Non-Patent Documents 5 and 6; cited from earlier work.
The mark [6] stands for this setting: n=5, 0 h (before administration), mean ± SE, dose mg/kg: 32, 33, 35, 36, 37: 20, 34: 23.4, 38: 32.4.
Where [7] appears, read: n=5, 4 h after administration, mean ± SE, dose mg/kg: 32, 33, 35, 36, 37: 20, 34: 23.4, 38: 32.4.
Where [8] appears, read: n=5, column after 4 h, time not printed in this copy (line cut), dose mg/kg: 32, 33, 35, 36, 37: 20, 34: 23.4, 38: 32.4.
Setting [9] is: n=5, 2 h after administration, mean ± SE, dose mg/kg: 32, 33, 35, 36, 37: 20, 34: 23.4, 38: 32.4.

In the case of bovine serum albumin [Sample 17], the systolic blood pressure is given as 186 + 2.2 mmH in series [1] (n=5, 0 h (before administration)); 169 + 1.8 mmH in series [1] (n=5, 2 h after administration); 170 ± 0.5 mmH in series [1] (n=5, 4 h after administration).

In the case of `N[C@@H](Cc1ccccc1)C(=O)O` [Sample 37, phenylalanine], the systolic blood pressure stood at 191±1.5 in series [2] (setting [6]), 165±1.7 in series [2] (setting [7]) and 175 in series [2] (setting [8]). Also, the “blood pressure during systole and diastole” value in series [3] (SHR rats, oral administration) is “significantly reduce blood pressure during systole and diastole”. For the same compound, the “effect on heart rate” value in series [3] (SHR rats, oral administration) is on record as “without affecting the heart rate”.

In the case of `CC[C@H](C)[C@H](N)C(=O)O` [Sample 20, Isoleucine], the values for the systolic blood pressure in series [2] (setting [9]), in series [2] (setting [7]) and in series [2] (setting [8]) were 163±2.5, 162+2.6 and 180, respectively. For the same compound, the “blood pressure during systole and diastole” value in series [3] (SHR rats, oral administration) was “significantly reduce blood pressure during systole and diastole”. For the same compound, in series [3] (SHR rats, oral administration), the “effect on heart rate” value is “without affecting the heart rate”.

As for `CC(C)C[C@H](N)C(=O)O` [Sample 21, Leucine], the systolic blood pressure came to 189±1.7 in series [2] (setting [6]), 162±1.0 in series [2] (setting [9]), 162±2.7 in series [2] (setting [7]) and 174 in series [2] (setting [8]). Moreover, the “blood pressure during systole and diastole” value in series [3] (SHR rats, oral administration) was “significantly reduce blood pressure during systole and diastole”. Besides, the “effect on heart rate” value in series [3] (rat, in vivo, po) was “without affecting the heart rate”.

Turning to `N[C@@H](CCC(=O)O)C(=O)O` [glutamic acid], in series [3] (SHR rats, oral administration), the “blood pressure during systole and diastole” value was “significantly reduce blood pressure during systole and diastole”; the “effect on heart rate” value is given as “without affecting the heart rate”.

For `N=C(N)NCCC[C@H](N)C(=O)O` [Sample 22, Arginine], in series [4], the “blood pressure lowering effect” value was “blood pressure lowering effect in systole and diastole”; the heart rate result was “increase in heart rate”.

In the case of `N[C@@H](CCC(=O)[O-])C(=O)[O-].[Na+].[Na+]` [Sample 25, Sodium glutamate], the figures for the systolic blood pressure in series [2] (setting [9]) and in series [2] (setting [8]) were 165±2 and 177, respectively.

Turning to `N[C@@H](Cc1ccc(O)cc1)C(=O)O` [Sample 38, Tyrosine, reference compound], the systolic blood pressure stood at 189±1.7 in series [2] (setting [6]), 161 ±1.8 in series [2] (setting [9]), 159±1.1 in series [2] (setting [7]) and 169 in series [2] (setting [8]). Besides, the “blood pressure lowering effect” value in series [5] is “blood pressure lowering effect”.

Take `N[C@@H](CO)C(=O)O` [Sample 36, Serine]: the systolic blood pressure is reported as 190+2.0 in series [2] (n=5, 0 h (before administration), mean ± SE, dose mg/kg: 32, 33, 35, 36, 37: 20, 34: 23.4, 38: 32.4, in mmHg); 164±1.4 in series [2] (setting [9]); 158±3.7 in series [2] (setting [7]); 172 in series [2] (setting [8]). The “blood pressure during systole and diastole” value in series [3] (SHR rats, oral administration) was “significantly reduce blood pressure during systole and diastole”. For the same compound, the “effect on heart rate” value in series [3] (rat, in vivo, po) is “without affecting the heart rate”.

Regarding `N[C@@H](Cc1c[nH]cn1)C(=O)O` [Sample 23, Histidine], the systolic blood pressure is 186+1.7 in series [2] (setting [6]), 152+3.3 in series [2] (setting [9]), 157±1.6 in series [2] (setting [7]) and 171 in series [2] (setting [8]). Further, the “blood pressure during systole and diastole” value in series [3] (SHR rats, oral administration) is “significantly reduce blood pressure during systole and diastole”. The “effect on heart rate” value in series [3] (SHR rats, oral administration) is “without affecting the heart rate”.

Consider `N[C@@H](Cc1c[nH]c2ccccc12)C(=O)O` [L-tributophan], for which the “blood pressure lowering effect” value in series [5] is listed as “blood pressure lowering effect”.
